The subject of assay [1] is Mushroom Tyrosinase. The assay can be described thus: Tyrosinase activity, modified Pomerantz method. Type of assay: biochemical. To be noted: H20 = 100.0. The method, then: Tyrosinase activity was measured by the modified Pomerantz method (Biophys Res Commun, 1964). Mushroom Tyrosinase (Sigma #3212816630) stock enzyme was 5 U/well (25 U/ml). The substrate (I-DOPA, Fisher Scientific, Pittsburgh, PA) stock solution was 20 mM. Working solution was prepared in PBS for each assay. The reaction mixture consisted of 50 μl 20 mM I-DOPA and 10 μl undiluted test sample. Reaction was initiated by adding tyrosinase. Assays were preformed in 96 well flat-bottom microtiter plates (Fisher #0720087) and read at 490 nm after 5, 10, and 20 min.

Assay [2] relates to Human melanocytes. The assay can be described thus: Melanin production assay in melanocytes. Type of assay: cell-based. As to conditions: 6 days. Here is the method: Materials and Methods: Human melanocytes from a moderately pigmented donor were purchased from Cascade Biologics (Portland, Oregon). Human dermal fibroblasts were purchased from Cambrex (Rockland, ME). In order to determine the optimal concentrations of the test materials for the whitening experiment, these materials were first examined in a proliferation assay with human dermal fibroblasts. The highest non-interfering concentration was determined for each test material and further 5-fold dilutions were made for use in melanocytes cultures. The following assay was used to the effects of the materials on melanin production. Melanocytes were seeded in the fully-supplemented 254 medium (Cascade) in 96 well plates and test materials were added 24 h later. Cells were grown for 6 days with one growth medium change. At the end of the experiment, cells were lysed with the Cellytic Mammalian Cell Lysis/Extraction Reagent (Sigma, St. Louis, MO) and melanin was solubilized in 2N NaOH. Melanin content was determined spectrophotometrically at 405 nm and standardized to total protein content from the same cultures, using Bradford reagent (Sigma, St. Louis, MO). Kojic acid was used as positive control. Cell cultures were monitored on a Nikon Eclipse inverted microscope.

We go through 2 molecules from patent publication US12714657B2, “Magnolia extract containing compositions” (MARY KAY INC., priority 2007, dated 2026).

Each structure is given as a SMILES string.

`O=C1O[C@H]([C@@H](O)CO)C(O)=C1O[C@H]1O[C@H](CO)[C@@H](O)[C@H](O)[C@H]1O` [Ascorbyl Glucoside, Ascorbyl glucoside]: the “Tyrosinase activity, % of water control” value in assay [1] (read at 490 nm after 5 min) was 33.8; in assay [1] (read at 490 nm after 10 min) it was 30.6; in assay [1] (read at 490 nm after 20 min) it was 30.1. Also, the “Melanin content (% of water control)” value in assay [2] (Dilution Factor 1/25-1/125, H20 = 100%) was 75-65.5%.
Consider `O=c1cc(CO)occ1O` [Kojic acid], for which the “Tyrosinase activity, % of water control” value worked out at 39.0 in assay [1] (read at 490 nm after 5 min), 35.5 in assay [1] (read at 490 nm after 10 min) and 33.1 in assay [1] (read at 490 nm after 20 min). The activity at 200 µM in assay [2] (Melanocyte, 144 h, 200 μM, H20 = 100%, read-out: Melanin Inhibition in Cells) came to 83%.
